{
  "source": "patent US12410153B2",
  "about": "“Compounds, compositions and methods” (Avalo Therapeutics, Inc., priority 2014, dated 2025)",
  "assay": "Repeated once-daily oral dosing with food (Days 1-7) in healthy subjects, PK and PD",
  "format": "in vivo, human",
  "settings": "for AUC(0-t) / Cmax / Vd/F / Tmax / AUC(0-inf) / half-life: both sexes, human, plasma, oral; for Cmax: read-out: Cmax, Mean (SD); for AUC(0-inf): read-out: AUCinf, Mean (SD)",
  "description": "A randomized, double-blind, placebo-controlled, parallel-dose group in-patient study is conducted to investigate the pharmacodynamic (PD) effects of crystalline Form II of Compound (I) in healthy subjects.\nThe study is designed as a three-part, sequential study. The sequential nature of the study ensures that a range of doses are investigated first in a young, healthy population (Part 1) before proceeding to higher doses in the healthy population and the comparator populations (intermediate age and elderly) (Parts 2 and 3). For the purposes of this study, “young” refers to a subject who is 18 to 45 years of age, “intermediate age” refers to a subject who is 46 to 64 years of age, and “elderly” refers to a subject who is 65 years of age or older.\nAfter a screening period of up to 21 days (Days −23 to −3), 16 healthy, young male and female subjects are randomly assigned to a dose group as shown in Table 9.\nEach parallel dose group is balanced for gender (approximately equal number of males and females). The randomized subjects are domiciled from Day −1 through Day 8. On Day −1, the subjects receive placebo tablets in the fed state and undergo ambulatory blood pressure monitoring (ABPM) and safety assessments to establish time-matched baselines. On Days 1-7, the subjects receive the study drug in the fed state and undergo safety, pharmacokinetic (PK) and pharmacodynamics (PD) assessments. On Days 8-11, follow-up PK and safety assessments are performed.\nSafety assessments include Clinician-Administered Dissociative States Scale (CADSS), Columbia-Suicide Severity Rating Scale (C-SSRS), concomitant medication, adverse event (AE) and vital sign assessments. In PK assessments, blood samples are taken and analyzed to determine PK parameters such as Cmax, Tmax, AUC0-24, and t1/2. PD assessments include ABPM, plasma brain-derived neurotrophic factor (BDNF) measurements, and Profile of Mood States (POMS) assessments.\nAfter a screening period of up to 21 days (Days −23 to −3), 16 subjects (8 healthy, young male and female subjects, and 8 healthy, intermediate age male and female subjects) are randomly assigned to a dose group as shown in Table 10.\nAfter a screening period of up to 21 days (Days −23 to −3), 16 subjects (8 healthy, young male and female subjects, and 8 healthy, elderly male and female subjects) are randomly assigned to a dose group as shown in Table 11.",
  "key": {"[1]": {"settings": "8 mg, young subjects, 8 mg, Day 7"}, "[2]": {"settings": "12 mg, intermediate age, 12 mg, Day 7"}},
  "note": "Where two headings read alike, the source gives them in different places.",
  "data": [
    {"molecule": "Cc1ccc(COC(=O)N2CC[C@H](CNc3ncccn3)[C@H](F)C2)cc1", "note": "[Form II, 4-methylbenzyl (3S, 4R)-3-fluoro-4-[(pyrimidin-2-ylamino)methyl] piperidine-1-carboxylate]", "values": [
      {"measurement": "average 7-day plasma BDNF values compared to placebo", "setting": "16 and 20 mg", "value": "trend for an increase"},
      {"measurement": "apparent oral clearance lower in female vs male subjects", "setting": "Day 7", "value": "approximately 15%"},
      {"measurement": "average Cmax higher in intermediate age and elderly subgroups vs young", "setting": "Day 7", "value": "approximately 30%"},
      {"measurement": "t½ higher in female vs male subjects", "setting": "Day 7", "value": "approximately 16%"},
      {"measurement": "mean plasma concentrations higher in female vs male subjects", "setting": "Day 7, 2 to 24 hours postdose", "value": "approximately 20%"},
      {"measurement": "Cmax and AUC vs dose", "setting": "Days 1 and 7, 8 to 20 mg", "value": "approximately dose-proportional"},
      {"measurement": "average 24 hour and daytime SBP and DBP", "setting": "all doses compared to placebo, maximal by Day 4", "value": "increased"},
      {"measurement": "AUC(0-t)", "setting": "8 mg, young subjects, 8 mg, Day 1, read-out: AUC0-24, Mean (SD)", "value": 1500, "unit": "ng·h/mL"},
      {"measurement": "AUC(0-t)", "setting": "8 mg, young subjects, 8 mg, Day 1, read-out: AUClast, Mean (SD)", "value": 1490, "unit": "ng·h/mL"},
      {"measurement": "Cmax", "setting": "8 mg, young subjects, 8 mg, Day 1", "value": 179, "unit": "ng/mL"},
      {"measurement": "Vd/F", "setting": "8 mg, young subjects, 8 mg, Day 1, read-out: Vz/F, Mean (SD)", "value": 101, "unit": "L"},
      {"measurement": "Tmax", "setting": "8 mg, young subjects, 8 mg, Day 1, read-out: tmax, Mean (SD)", "value": 2.17, "unit": "h"},
      {"measurement": "Tmax", "setting": "8 mg, young subjects, 8 mg, Day 1, read-out: tmax, Median", "value": 2, "unit": "h"},
      {"measurement": "AUC(0-t)", "setting": "8 mg, young subjects, 8 mg, Day 7, read-out: AUC0-24, Mean (SD)", "value": 2400, "unit": "ng·h/mL"},
      {"measurement": "AUC(0-inf)", "setting": "[1]", "value": 4110, "unit": "ng·h/mL"},
      {"measurement": "AUC(0-t)", "setting": "8 mg, young subjects, 8 mg, Day 7, read-out: AUClast, Mean (SD)", "value": 3770, "unit": "ng·h/mL"},
      {"measurement": "Cmax", "setting": "[1]", "value": 224, "unit": "ng/mL"},
      {"measurement": "half-life", "setting": "8 mg, young subjects, 8 mg, Day 7, read-out: t1/2, Mean (SD) (converted)", "value": 17.2, "unit": "h"},
      {"measurement": "Tmax", "setting": "8 mg, young subjects, 8 mg, Day 7, read-out: tmax, Mean (SD)", "value": 2.75, "unit": "h"},
      {"measurement": "Tmax", "setting": "8 mg, young subjects, 8 mg, Day 7, read-out: tmax, Median", "value": 3, "unit": "h"},
      {"measurement": "half-life", "setting": "12 mg, Day 7, read-out: average t½, range across age groups", "value": "20 to 28", "unit": "h"},
      {"measurement": "AUC(0-t)", "setting": "12 mg, elderly, 12 mg, Day 1, read-out: AUC0-24, Mean (SD)", "value": 2130, "unit": "ng·h/mL"},
      {"measurement": "AUC(0-t)", "setting": "12 mg, elderly, 12 mg, Day 1, read-out: AUClast, Mean (SD)", "value": 2100, "unit": "ng·h/mL"},
      {"measurement": "Cmax", "setting": "12 mg, elderly, 12 mg, Day 1", "value": 229, "unit": "ng/mL"},
      {"measurement": "Vd/F", "setting": "12 mg, elderly, 12 mg, Day 1, read-out: Vz/F, Mean (SD)", "value": 164, "unit": "L"},
      {"measurement": "Tmax", "setting": "12 mg, elderly, 12 mg, Day 1, read-out: tmax, Mean (SD)", "value": 1.93, "unit": "h"},
      {"measurement": "Tmax", "setting": "12 mg, elderly, 12 mg, Day 1, read-out: tmax, Median", "value": 1.75, "unit": "h"},
      {"measurement": "AUC(0-t)", "setting": "12 mg, elderly, 12 mg, Day 7, read-out: AUC0-24, Mean (SD)", "value": 4520, "unit": "ng·h/mL"},
      {"measurement": "AUC(0-inf)", "setting": "12 mg, elderly, 12 mg, Day 7", "value": 10300, "unit": "ng·h/mL"},
      {"measurement": "AUC(0-t)", "setting": "12 mg, elderly, 12 mg, Day 7, read-out: AUClast, Mean (SD)", "value": 9140, "unit": "ng·h/mL"},
      {"measurement": "Cmax", "setting": "12 mg, elderly, 12 mg, Day 7", "value": 349, "unit": "ng/mL"},
      {"measurement": "Vd/F", "setting": "12 mg, elderly, 12 mg, Day 7, read-out: Vss/F, Mean (SD)", "value": 111, "unit": "L"},
      {"measurement": "half-life", "setting": "12 mg, elderly, 12 mg, Day 7, read-out: t1/2, Mean (SD) (converted)", "value": 28.3, "unit": "h"},
      {"measurement": "Tmax", "setting": "12 mg, elderly, 12 mg, Day 7, read-out: tmax, Mean (SD)", "value": 2.26, "unit": "h"},
      {"measurement": "Tmax", "setting": "12 mg, elderly, 12 mg, Day 7, read-out: tmax, Median", "value": 2, "unit": "h"},
      {"measurement": "AUC(0-t)", "setting": "12 mg, intermediate age, 12 mg, Day 1, read-out: AUC0-24, Mean (SD)", "value": 2000, "unit": "ng·h/mL"},
      {"measurement": "AUC(0-t)", "setting": "12 mg, intermediate age, 12 mg, Day 1, read-out: AUClast, Mean (SD)", "value": 1980, "unit": "ng·h/mL"},
      {"measurement": "Cmax", "setting": "12 mg, intermediate age, 12 mg, Day 1", "value": 257, "unit": "ng/mL"},
      {"measurement": "Vd/F", "setting": "12 mg, intermediate age, 12 mg, Day 1, read-out: Vz/F, Mean (SD)", "value": 201, "unit": "L"},
      {"measurement": "Tmax", "setting": "12 mg, intermediate age, 12 mg, Day 1, read-out: tmax, Mean (SD)", "value": 2.5, "unit": "h"},
      {"measurement": "Tmax", "setting": "12 mg, intermediate age, 12 mg, Day 1, read-out: tmax, Median", "value": 2.5, "unit": "h"},
      {"measurement": "AUC(0-t)", "setting": "12 mg, intermediate age, 12 mg, Day 7, read-out: AUC0-24, Mean (SD)", "value": 3840, "unit": "ng·h/mL"},
      {"measurement": "AUC(0-inf)", "setting": "[2]", "value": 8100, "unit": "ng·h/mL"},
      {"measurement": "AUC(0-t)", "setting": "12 mg, intermediate age, 12 mg, Day 7, read-out: AUClast, Mean (SD)", "value": 7470, "unit": "ng·h/mL"},
      {"measurement": "Cmax", "setting": "[2]", "value": 360, "unit": "ng/mL"},
      {"measurement": "Vd/F", "setting": "12 mg, intermediate age, 12 mg, Day 7, read-out: Vss/F, Mean (SD)", "value": 121, "unit": "L"},
      {"measurement": "half-life", "setting": "12 mg, intermediate age, 12 mg, Day 7, read-out: t1/2, Mean (SD) (converted)", "value": 26.1, "unit": "h"},
      {"measurement": "Tmax", "setting": "12 mg, intermediate age, 12 mg, Day 7, read-out: tmax, Mean (SD)", "value": 1.83, "unit": "h"},
      {"measurement": "Tmax", "setting": "12 mg, intermediate age, 12 mg, Day 7, read-out: tmax, Median", "value": 1.5, "unit": "h"}
    ]}
  ]
}
